# Measurements reported in publication PMC6594058, “A Research‐inspired biochemistry laboratory module–combining expression, purification, crystallization, structure‐solving, and characterization of a flavodoxin‐like protein” (Biochemistry and Molecular Biology Education, 2019).
# Biological target: T1, NrdI (Bacillus cereus, UniProt Q81G57)
# T1 construct: untagged by purification route (IEX, SEC); pET-22b(+) XbaI/HindIII; E. coli BL21(DE3)
# T1 sequence (Q81G57 1-119): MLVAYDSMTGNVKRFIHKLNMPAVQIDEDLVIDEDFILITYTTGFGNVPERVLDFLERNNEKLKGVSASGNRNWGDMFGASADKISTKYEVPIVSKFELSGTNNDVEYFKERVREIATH
# Assay: X-ray crystallography (students re-solve previously collected semiquinone data); UV-vis of co-purified cofactor with dithionite titration
# Type: binding
# Details: crystal in semiquinone state (FMNH•); 1.15 Å; UV-vis in 50 mM Tris-HCl pH 7.5; native bound cofactor
compound,measurement,value
Cc1cc2nc3c(=O)[nH]c(=O)nc-3n(C[C@H](O)[C@H](O)[C@H](O)COP(=O)(O)O)c2cc1C [FMN],X-ray crystallography (students re-solve previously collected semiquinone data);,"Overall structure of the B. cereus NrdI, with the FMN cofactor represented as sticks"
